Assay results reported in patent US10390553B2, “Food containing histidine and use thereof” (AJINOMOTO CO., INC., priority 2013, dated 2019).

Experiments:
[1] = test system: males feeling decrease in the quality of sleep and fatigue; assay: VAS questionnaires relating to mental energy, single histidine ingestion; format: in vivo, human; settings: single ingestion 1.65 g
Description: (§1) Twenty males of 45 years old to less than 65 years old, who received total evaluation of not less than 17 points in the “self-diagnosis fatigue questionnaire” (Fatigue Science Laboratory Inc.) performed in advance, felt decrease in the quality of sleep (generally PSQI≥6), and obtained fatigue factor T scores of not less than 60 points in POMS, were selected, and randomly divided into 2 groups (10 per group). The effect of single ingestion of histidine and control food (equal volume of cellulose) was compared in each group. As shown in the experiment protocol of FIG. 5A, the test subjects took the same meals for 3 days before the experiment, fasted for 10 to 14 hr, and ingested capsules containing 1.65 g of L-histidine as a single ingestion amount (5 capsules (hard capsule #2 WHITE OP B/C) containing 0.33 g of L-histidine alone), or control sample capsules (5 capsules containing equal volume of cellulose). Before and 1 hr after ingestion of capsules, the test subjects answered the VAS questionnaires (fatigue, depression, vague sense, drowsiness, clear thinking, motivation, attentiveness, concentration) relating to mental energy, and cognitive function measurement task CogHealth (under conditions with higher difficulty by simultaneously including mental arithmetic task as well) to measure recognition. Furthermore, they answered VAS questionnaires after completion of CogHealth.

[2] = test system: CD2F1 mice after burden of insufficient sleep; assay: Y-maze test, short-working memory after burden of insufficient sleep, single histidine administration; format: in vivo, mouse; settings: single oral dose 1.2 g/kg body weight at ZT14; Y-maze at ZT15; SD+His vs SD+solvent
Description: Using CD2F1 mice (9-week-old) and as shown in the experiment protocol of FIG. 3A, a burden of insufficient sleep is applied to sleep disorder group (SD) for two days. The burden was released at ZT6, and the mice were placed back in the home cage and allowed to rest for 6 hr. The control group (CON) was reared without burden in the home cage. A L-histidine solution was orally administered to a histidine administration group (SD+His) at 2 hr after the start of the dark phase after burden of insufficient sleep (ZT14), to achieve an L-histidine dose of 1.2 g/kg body weight. A solvent (water) was orally administered to the solvent administration group (SD+solvent) and the control group (CON). The Y-maze test was performed at 3 hr from the start of the dark phase (ZT15), and short-working memory was measured.

[3] = test system: males feeling decrease in the sleep quality and fatigue; assay: VAS questionnaires relating to mental energy, histidine ingestion for 14 days; format: in vivo, human; settings: 1.65 g daily for 14 days vs control food, p<0.05
Description: Twenty males of 45 years old to less than 65 years old, who received total evaluation of not less than 17 points in the “self-diagnosis fatigue questionnaire” (Fatigue Science Laboratory Inc.) performed in advance, felt decrease in the quality of sleep (generally PSQI≥6), and obtained fatigue factor T scores of not less than 60 points in POMS, were selected, and randomly divided into 2 groups (10 per group). A crossover test, including ingesting histidine and control food (equal volume of cellulose) each for 14 days, was performed in each group. As shown in the experiment protocol of FIG. 4A, the test subjects ingested capsules containing 1.65 g of L-histidine as a daily ingestion amount (5 capsules (hard capsule #2 WHITE OP B/C) containing 0.33 g of L-histidine alone), or control sample capsules (5 capsules containing equal volume of cellulose) for 14 days. After the completion of 14 day ingestion, a 14 day resting period was taken. After the resting period, they ingested the capsules not ingested before the resting period. On the initial day and the day after completion of the capsule ingestion period, the test subjects answered POMS and the VAS questionnaires (fatigue, depression, vague sense, drowsiness, clear thinking, motivation, attentiveness, concentration) relating to mental energy, and cognitive function measurement task CogHealth (under higher difficulty conditions by simultaneously including mental arithmetic task as well) to measure recognition. Furthermore, they answered VAS questionnaires after completion of CogHealth.

[4] = test system: mouse reared under 24 hr dark conditions; assay: Biorhythm phase regulating action, locomotor behavioral pattern in free run cycle under 24 hr dark conditions; format: in vivo; settings: for phase shift of the behavior start time (circadian rhythm): feed with 45 mg L-histidine per 1 g, 4 hours per day for 4 days
Protocol: A phase regulating action of histidine on a mouse reared under 24 hr dark conditions was evaluated. When a mouse is reared under 24 hr dark conditions, the mouse starts to act in a cycle specific to the biological clock (also referred to as free run, meaning freed from synchrony), since the outside information (light-dark cycle of light) cannot be obtained. When the free run cycle is converted to 24 hr and indicated as circadian time on the horizontal axis, 12 hours of the former half thereof is called a subjective light period (time zone judged to be daytime by biological clock: CT0-12), and the latter half is called a subjective dark period (time zone judged to be night by biological clock: CT12-24). Under such conditions, locomotor activity of mice (behavioral pattern in free run cycle) was measured using an emission infrared detector type locomotor activities sensor (Digital acquisition system; NS-AS01, Neuroscience Inc, Tokyo, Japan). Furthermore, a feed added with 45 mg of L-histidine per 1 g of a general feed was prepared, and used to replace the general feed for only 4 hours in one day to allow for ingestion. The time zone for ingestion was CT2-6 (subjective light period) or CT14-18 (subjective dark period). Such replacement of the feed was performed for 4 days, and change of phase of the behavioral pattern was judged.

[5] = test system: males feeling decrease in the sleep quality and fatigue; assay: POMS after histidine ingestion for 14 days (crossover vs control food); format: in vivo, human; settings: 1.65 g L-histidine daily for 14 days vs control food; paired t-test p<0.05
Description: (§2) Twenty males of 45 years old to less than 65 years old, who received total evaluation of not less than 17 points in the “self-diagnosis fatigue questionnaire” (Fatigue Science Laboratory Inc.) performed in advance, felt decrease in the quality of sleep (generally PSQI≥6), and obtained fatigue factor T scores of not less than 60 points in POMS, were selected, and randomly divided into 2 groups (10 per group). A crossover test, including ingesting histidine and control food (equal volume of cellulose) each for 14 days, was performed in each group. As shown in the experiment protocol of FIG. 4A, the test subjects ingested capsules containing 1.65 g of L-histidine as a daily ingestion amount (5 capsules (hard capsule #2 WHITE OP B/C) containing 0.33 g of L-histidine alone), or control sample capsules (5 capsules containing equal volume of cellulose) for 14 days. After the completion of 14 day ingestion, a 14 day resting period was taken. After the resting period, they ingested the capsules not ingested before the resting period. […]

[6] = test system: clock genes (Bmal1, Dbp, Per1, Per2, Reverb-alpha); assay: Oscillation of expression of clock genes of the auricle in aged mice; format: in vivo, mouse; settings: aged mice 22 to 24 months, 1.2 w/v % L-histidine solution for 9 days
Protocol: Aged mice of 22 to 24 months of age being reared under generally light and dark environment were divided into two groups, and the effect of the ingestion of histidine drinking solution was studied. The histidine ingestion period was set to 9 days, during which period aqueous L-histidine solution (corresponding to L-histidine 1.2 w/v %) was given for ingestion by mounting a water inlet on a 50 mL centrifuge tube, whereby about 1.2 g/kg body weight of histidine was ingested per day. In the histidine ingestion group of aged mice, samples were taken from the auricle by changing the position over time on 8 to 9 days from the start of the ingestion of the aqueous histidine solution, and 5 kinds of clock genes (Bmal1, Dbp, Per1, Per2, Reverb-alpha) of the peripheral tissue were analyzed as an index of biorhythm. In the simultaneous stage, the clock genes of the auricle of the aged mice and young mice (4 months old) that ingested tap water were analyzed as comparison targets. […] To be specific, gene expression of the clock gene was quantified at each time point, and the amplitudes and phase of the oscillation of expression of the clock gene of each individual were determined by approximation on the cosine curve. […]

[7] = test system: CD2F1 mice after burden of insufficient sleep; assay: Locomotor activities in the dark phase after burden of insufficient sleep, continuous histidine administration; format: in vivo, mouse; settings: 1.2 w/v % L-histidine solution drunk for 7 days, 1.2 g/kg body weight/day; SD+His vs SD+solvent
Description: Using CD2F1 mice (9-week-old) and as shown in the experiment protocol of FIG. 1A, the mice were chronically allowed to drink a 1.2 w/v % L-histidine solution for 7 days in the histidine ingestion group (SD+His) to achieve a dose of 1.2 g/kg body weight/day. Water was given to the control group (CON) and the solvent ingestion group (SD+solvent). Then, the sleep disorder group (SD) was burdened by insufficient sleep for one day by filling water in the breeding cage at the depth of 0.5 cm. The burden was released at 6 hr from the start of the light phase (ZT6), and the mice were placed back in the home cage and allowed to rest for 6 hr. The control group was reared without burden in the home cage. Thereafter, they were transferred into a cage set under a locomotor activity measurement infrared sensor (Digital acquisition system; NS-DAS-32, Neuroscience Inc, Tokyo, Japan) under fasting and water-deprivation. The locomotor activities were measured and the data was collected by a multidigital counter (Neuroscience Inc, Tokyo, Japan).

[8] = test system: males feeling decrease in the quality of sleep and fatigue; assay: Cognitive function measurement task CogHealth, single histidine ingestion; format: in vivo, human; settings: single ingestion 1.65 g, 1 hr after ingestion, vs control food
Description: as §1

[9] = test system: males feeling decrease in the sleep quality and fatigue; assay: Cognitive function measurement task CogHealth, histidine ingestion for 14 days; format: in vivo, human; settings: 1.65 g daily for 14 days vs control food
Description: as §2

[10] = test system: CD2F1 mice after burden of insufficient sleep; assay: Locomotor activities under novel environment after burden of insufficient sleep, single histidine administration; format: in vivo, mouse; settings: single oral dose 1.2 g/kg body weight at ZT14; measured for 3 hr from ZT15; SD+His vs SD+solvent
Description: Using CD2F1 mice (9-10-week-old) and as shown in the experiment protocol of FIG. 2A, a burden of insufficient sleep is applied to sleep disorder group (SD) for one day. The burden was released at ZT6, and the mice were placed back in the home cage and allowed to rest for 6 hr. The control group (CON) was reared without burden in the home cage. A 1.2 w/v % L-histidine solution was orally administered to a histidine administration group (SD+His) at 2 hr after the start of the dark phase after burden of insufficient sleep (ZT14), to achieve an L-histidine dose of 1.2 g/kg body weight. A solvent (water) was orally administered to the solvent administration group (SD+solvent) and the control group (CON). The locomotor activities under novel environment were measured for 3 hr from 3 hr after the start of the dark phase (ZT15).

[11] = test system: males feeling decrease in the quality of sleep and fatigue; assay: Safety of histidine ingestion: general properties, hematology, blood biochemistry; format: in vivo, human; settings: 2 weeks continuous and single, 1.65 g
Description: Twenty males of 45 years old to less than 65 years old, who received total evaluation of not less than 17 points in the “self-diagnosis fatigue questionnaire” (Fatigue Science Laboratory Inc.) performed in advance, felt decrease in the quality of sleep (generally PSQI≥6), and obtained fatigue factor T scores of not less than 60 points in POMS, were selected, and randomly divided into 2 groups (10 per group). A crossover test, including ingesting histidine and control food (equal volume of cellulose) each for 14 days, was performed in each group.
As shown in the experiment protocol of FIG. 4A, the test subjects ingested capsules containing 1.65 g of L-histidine as a daily ingestion amount (5 capsules (hard capsule #2 WHITE OP B/C) containing 0.33 g of L-histidine alone), or control sample capsules (5 capsules containing equal volume of cellulose) for 14 days. After the completion of 14 day ingestion, a 14 day resting period was taken. After the resting period, they ingested the capsules not ingested before the resting period. […]

[12] = 1 hr after ingestion, before cognitive functioning test, p<0.05
[13] = before cognitive functioning test

Structure (SMILES): N[C@@H](Cc1c[nH]cn1)C(=O)O [histidine, L-histidine]
- VAS sense of concentration ([1]; 1 hr after ingestion, before cognitive functioning test): tended to increase
- VAS sense of attentiveness [1, 12]: significantly increased
- VAS sense of clear thinking [1, 12]: significantly increased
- VAS sense of concentration ([1]; after completion of CogHealth): tended to increase
- VAS sense of depression ([1]; after completion of CogHealth): tended to decrease
- VAS sense of vagueness ([1]; after completion of CogHealth, p<0.05): significantly decreased
- alternation behavior (short-working memory) [2]: significant suppression of a decrease of alternation behavior
- VAS sense of attentiveness ([3]; after completion of CogHealth): significantly increased
- VAS sense of depression ([3]; after completion of CogHealth): significantly decreased
- VAS sense of motivation ([3]; after completion of CogHealth): significantly increased
- VAS sense of attentiveness [3, 13]: significantly increased
- VAS sense of clear thinking [3, 13]: significantly increased
- VAS sense of motivation [3, 13]: significantly increased
- phase shift of the behavior start time (circadian rhythm) ([4]; ingestion in CT2-6 (subjective light period)): significantly advances
- phase shift of the behavior start time (circadian rhythm) ([4]; ingestion in CT14-18 (subjective dark period)): tended to advance
- shortening of the cycle of activity rhythm, mean ([4]; ingestion of histidine in CT2-6, n=4): 0.34 ± 0.08 h
- fatigue factor scores of POMS [5]: significantly decreased
- phase of the oscillation of expression of the clock gene ([6]; about 1.2 g/kg body weight per day, vs aged mice on tap water): suppressed phase advancement
- average phase of measured 5 clock genes compared to young mice ([6]; compared to young mice (4 months old)): reached the same level as in young mice
- locomotor activities in the dark phase [7]: significant suppression of a decrease of locomotor activities in the dark phase
- indices relating to cognition [8]: did not show a significant change
- work time in 5 kinds of brain function measurement indices [8]: shortened
- reaction time of cognitive function measurement task [9]: shortened
- reaction time of delayed recall task ([9]; paired t-test p<0.05): significantly decreased
- locomotor activities under novel environment [10]: tendency of suppression of a decrease in the locomotor activities
- variation in general properties, hematology, and blood biochemistry [11]: did not show problematic variation
